Reference: patent US11254676B2, “Pyrazole derivative compound and use thereof” (HANMI PHARM. CO., LTD., priority 2017, dated 2022)

Tested on: NCI-H1417 cells
Assay: Cell growth suppression test, CellTiter-Glo Luminescent Cell Viability Assay
Type: cell-based
Conditions: Homo sapiens, 240 h; NCI-H1417 cells treated for 10 days
Method: Cell growth suppression effects of the synthesized compounds on NCI-H1417 cells were identified. The cells were treated with the synthesized compounds for 10 days. Then, in order to test the cell growth suppression, CellTiter-Glo Luminescent Cell Viability Assay (available from Promega, USA) was used. This test is to measure emission signals proportional to the number of ATPs based on a fixed amount of ATPs, which represents the presence of metabolically active cells, thereby determining the number of viable cells. The results are expressed as a GI50 value. As for a control, GSK2879552 (available from GlaxoSmithKline USA) was used.

Compound	GI50 [nM]
N#Cc1ccc(-c2cc(C(=O)N3CCC[C@@H](N)C3)nn2-c2ccc(N3CCCC3)cc2Cl)cc1F [Example 75, (R)-4-(3-(3-aminopiperidine-1-carbonyl)-1-(2-chloro-4-(pyrrolidine-1-yl)phenyl)-1H-pyrazole-5-yl)-2-fluorobenzonitrile]	52
N#Cc1ccc(-c2cc(C(=O)N3CCC[C@@H](N)C3)nn2-c2ccc(N3CCC(N4CCCCC4)CC3)cc2F)cc1F [Example 83, (R)-4-(1-(4-([1,4′-bipiperidine]-1′-yl)-2-fluorophenyl)-3-(3-aminopiperidine-1-carbonyl)-1H-pyrazole-5-yl)-2-fluorobenzonitrile]	71
CC(C)c1ccc(-n2nc(C(=O)N3CCC[C@@H](N)C3)cc2-c2ccc(C#N)cc2)cc1 [Example 35, (R)-4-(3-(3-aminopiperidine-1-carbonyl)-1-(4-isopropylphenyl)-1H-pyrazole-5-yl)benzonitrile]	145
N#Cc1ccc(-c2cc(C(=O)N3CCC[C@@H](N)C3)nn2-c2ccc(N3CC[C@@H](F)C3)cc2F)cc1F [Example 61, 4-(3-((R)-3-aminopiperidine-1-carbonyl)-1-(2-fluoro-4-((R)-3-fluoropyrrolidine-1-yl)phenyl)-1H-pyrazole-5-yl)-2-fluorobenzonitrile]	82
N#Cc1ccc(-c2cc(C(=O)N3CCCC[C@@H](N)C3)nn2-c2ccc(C3CC3)cc2F)cc1F [Example 8, (R)-4-(3-(3-aminoazepane-1-carbonyl)-1-(4-cyclopropyl-2-fluorophenyl)-1H-pyrazole-5-yl)-2-fluorobenzonitrile]	101
N#Cc1ccc(-c2cc(C(=O)N3CCC[C@@H](N)C3)nn2-c2ccc3c(c2)CCC3)cc1F [Example 88, (R)-4-(3-(3-aminopiperidine-1-carbonyl)-1-(2,3-dihydro-1H-inden-5-yl)-1H-pyrazole-5-yl)-2-fluorobenzonitrile]	173
N#Cc1ccc(-c2cc(C(=O)N3CCC[C@@H](N)C3)nn2-c2c(F)cc(N3CCCC3)cc2F)cc1F [Example 74, (R)-4-(3-(3-aminopiperidine-1-carbonyl)-1-(2,6-difluoro-4-(pyrrolidine-1-yl)phenyl)-1H-pyrazole-5-yl)-2-fluorobenzonitrile]	8.8
CC1CC(C)CN(c2ccc(-n3nc(C(=O)N4CCC[C@@H](N)C4)cc3-c3ccc(C#N)c(F)c3)c(F)c2)C1 (stereo partly drawn) [Example 82, 4-(3-((R)-3-aminopiperidine-1-carbonyl)-1-(4-(3,5-dimethylpiperidine-1-yl)-2-fluorophenyl)-1H-pyrazole-5-yl)-2-fluorobenzonitrile]	119
N#Cc1ccc(-c2cc(C(=O)N3CCC[C@@H](N)C3)nn2-c2c(F)cc(C3CC3)cc2F)cc1F [Example 10, (R)-4-(3-(3-aminopiperidine-1-carbonyl)-1-(4-cyclopropyl-2,6-difluorophenyl)-1H-pyrazole-5-yl)-2-fluorobenzonitrile]	108
CC(C)c1ccc(-n2nc(C(=O)N3CCC[C@@H](N)C3)cc2-c2ccc(C#N)cc2)c(F)c1 [Example 37, (R)-4-(3-(3-aminopiperidine-1-carbonyl)-1-(2-fluoro-4-isopropylphenyl)-1H-pyrazole-5-yl) benzonitrile]	215
N#Cc1ccc(-c2cc(C(=O)N3CCC[C@@H](N)C3)nn2-c2ccc(C3CC3)cc2F)cc1 [Example 3, (R)-4-(3-(3-aminopiperidine-1-carbonyl)-1-(4-cyclopropyl-2-fluorophenyl)-1H-pyrazole-5-yl)benzonitrile]	49
N#Cc1ccc(-c2cc(C(=O)N3CCC[C@@H](N)C3)nn2-c2ccc(N3CCC(O)C3)cc2F)cc1F (stereo partly drawn) [Example 72, 4-(3-((R)-3-aminopiperidine-1-carbonyl)-1-(2-fluoro-4-(3-hydroxypyrrolidine-1-yl)phenyl)-1H-pyrazole-5-yl)-2-fluorobenzonitrile]	38
CCO[C@H]1CCN(c2ccc(-n3nc(C(=O)N4CCC[C@@H](NC)C4)cc3-c3ccc(C#N)c(F)c3)c(F)c2)C1 [Example 71, 2-fluoro-4-(1-(2-fluoro-4-((S)-3-ethoxypyrrolidine-1-yl)phenyl)-3-((R)-3-(methylamino)piperidine-1-carbonyl)-1H-pyrazole-5-yl)benzonitrile]	10
CO[C@H]1CCN(c2ccc(-n3nc(C(=O)N4CCC[C@@H](N)C4)cc3-c3ccc(C#N)c(F)c3)c(F)c2)C1 [Example 67, 4-(3-((R)-3-aminopiperidine-1-carbonyl)-1-(2-fluoro-4-((S)-3-methoxypyrrolidine-1-yl)phenyl)-1H-pyrazole-5-yl)-2-fluorobenzonitrile]	30
N#Cc1ccc(-c2cc(C(=O)N3CCCC[C@@H](N)C3)nn2-c2ccc(N3CCCC3)cc2F)cc1F [Example 60, (R)-4-(3-(3-aminoazepane-1-carbonyl)-1-(2-fluoro-4-(pyrrolidine-1-yl)phenyl)-1H-pyrazole-5-yl)-2-fluorobenzonitrile]	53
N#Cc1ccc(-c2cc(C(=O)N3CCC[C@@H](N)C3)nn2-c2ccc(C3CC3)cc2)cc1 [Example 1, (R)-4-(3-(3-aminopiperidine-1-carbonyl)-1-(4-cyclopropylphenyl)-1H-pyrazole-5-yl)benzonitrile]	94

Compound	GI50 [nM]
CN(C)c1ccc(-n2nc(C(=O)N3CCC[C@@H](N)C3)cc2-c2ccc(C#N)cc2)c(F)c1 [Example 54, (R)-4-(3-(3-aminopiperidine-1-carbonyl)-1-(4-(dimethylamino)-2-fluorophenyl)-1H-pyrazole-5-yl)benzonitrile]	84
CN[C@@H]1CCCN(C(=O)c2cc(-c3ccc(C#N)c(F)c3)n(-c3ccc(N4CCCC4)cc3F)n2)C1 [Example 59, (R)-2-fluoro-4-(1-(2-fluoro-4-(pyrrolidine-1-yl)phenyl)-3-(3-(methylamino)piperidine-1-carbonyl)-1H-pyrazole-5-yl)benzonitrile]	9.7
N#Cc1ccc(-c2cc(C(=O)N3CCC[C@@H](N)C3)nn2-c2ccc(N3CCCCC3)cc2F)cc1 [Example 77, (R)-4-(3-(3-aminopiperidine-1-carbonyl)-1-(2-fluoro-4-(piperidine-1-yl)phenyl)-1H-pyrazole-5-yl)benzonitrile]	67
CC(C)(C)c1ccc(-n2nc(C(=O)N3CCCC[C@@H](N)C3)cc2-c2ccc(C#N)c(F)c2)c(F)c1 [Example 44]	133
CC(C)(C)c1ccc(-n2nc(C(=O)N3CCC[C@@H](N)C3)cc2-c2ccc(C#N)cc2)c(F)c1 [Example 42, (R)-4-(3-(3-aminopiperidine-1-carbonyl)-1-(4-(tert-butyl)-2-fluorophenyl)-1H-pyrazole-5-yl)benzonitrile]	226
CN[C@@H]1CCCN(C(=O)c2cc(-c3ccc(C#N)c(F)c3)n(-c3ccc(N4CCC(OC)C4)cc3F)n2)C1 (stereo partly drawn) [Example 66, 2-fluoro-4-(1-(2-fluoro-4-(3-methoxypyrrolidine-1-yl)phenyl)-3-((R)-3-(methylamino)piperidine-1-carbonyl)-1H-pyrazole-5-yl)benzonitrile]	16
CN[C@@H]1CCCN(C(=O)c2cc(-c3ccc(C#N)c(F)c3)n(-c3ccc(N4CC[C@@H](OC)C4)cc3F)n2)C1 [Example 70, 2-fluoro-4-(1-(2-fluoro-4-((R)-3-methoxypyrrolidine-1-yl)phenyl)-3-((R)-3-(methylamino)piperidine-1-carbonyl)-1H-pyrazole-5-yl)benzonitrile]	18
N#Cc1ccc(-c2cc(C(=O)N3CCC[C@@H](N)C3)nn2-c2ccc(N3CCCC3)cc2F)cc1F [Example 58, (R)-4-(3-(3-aminopiperidine-1-carbonyl)-1-(2-fluoro-4-(pyrrolidine-1-yl)phenyl)-1H-pyrazole-5-yl)-2-fluorobenzonitrile]	24
N#Cc1ccc(-c2cc(C(=O)N3CCCC[C@@H](N)C3)nn2-c2ccc(N3CCCCC3)cc2F)cc1F [Example 84, (R)-4-(3-(3-aminoazepane-1-carbonyl)-1-(2-fluoro-4-(piperidine-1-yl)phenyl)-1H-pyrazole-5-yl)-2-fluorobenzonitrile]	84
N#Cc1ccc(-c2cc(C(=O)N3CCC[C@@H](N)C3)nn2-c2ccc(C3CC3)cc2F)cc1F [Example 5, (R)-4-(3-(3-aminopiperidine-1-carbonyl)-1-(4-cyclopropyl-2-fluorophenyl)-1H-pyrazole-5-yl)-2-fluorobenzonitrile]	48
COc1cc(N2CCCC2)ccc1-n1nc(C(=O)N2CCC[C@@H](N)C2)cc1-c1ccc(C#N)c(F)c1 [Example 76, (R)-4-(3-(3-aminopiperidine-1-carbonyl)-1-(2-methoxy-4-(pyrrolidine-1-yl)phenyl)-1H-pyrazole-5-yl)-2-fluorobenzonitrile]	43
CN[C@@H]1CCCN(C(=O)c2cc(-c3ccc(C#N)cc3)n(-c3ccc(C4CC4)cc3)n2)C1 [Example 2, (R)-4-(1-(4-cyclopropylphenyl)-3-(3-methylaminopiperidine-1-carbonyl)-1H-pyrazole-5-yl)benzonitrile]	120
CN[C@@H]1CCCN(C(=O)c2cc(-c3ccc(C#N)cc3)n(-c3ccc(C(C)C)cc3)n2)C1 [Example 36, (R)-4-(1-(4-isopropylphenyl)-3-(3-(methylamino)piperidine-1-carbonyl)-1H-pyrazole-5-yl) benzonitrile]	91
CN[C@@H]1CCCN(C(=O)c2cc(-c3ccc(C#N)c(F)c3)n(-c3ccc(N4CC[C@H](Cl)C4)cc3F)n2)C1 [Example 73, 2-fluoro-4-(1-(2-fluoro-4-((S)-3-chloropyrrolidine-1-yl)phenyl)-3-((R)-3-(methylamino)piperidine-1-carbonyl)-1H-pyrazole-5-yl)benzonitrile]	39
CN[C@@H]1CCCN(C(=O)c2cc(-c3ccc(C#N)cc3)n(-c3ccc(C(C)(C)C)cc3)n2)C1 [Example 41]	126
